The source of these data is publication PMC4579554, “Isolation and characterisation of transport-defective substrate-binding mutants of the tetracycline antiporter TetA(B)” (Biochimica et Biophysica Acta, 2015).

The target of test [1] is T1, TetA(B)-Δ394–401-Thrombin-His12 (Escherichia coli, UniProt P02980, DEL394-401).
T1 construct: C-terminal truncation of residues 394-401, thrombin site and His12 tag (also printed as His10) kept, pET21b, expressed in E. coli C43, purified in LMNG
Kind of test: isothermal titration calorimetry. The test is classed as binding.

Test [2] deals with TetA(B)-Δ394–401-Thrombin-His12 (Escherichia coli, UniProt P02980, DEL195-199/DEL203-207). Kind of test: biochemical. The text has this:
isothermal titration calorimetry on TetA(B)-Δ394–401-Thrombin-His12

The next test deals with T2, TetA(B)-His10 (Escherichia coli, UniProt P02980).
T2 construct: full length (401 residues), C-terminal His10 tag kept, pET21b, expressed in E. coli C43, purified in LMNG
Put plainly: isothermal titration calorimetry. The test is classed as binding. An excerpt: isothermal titration calorimetry on TetA(B)-His10
(ITC needs no label: the signal is the heat of the interaction.)

T2 sequence (P02980 whole entry): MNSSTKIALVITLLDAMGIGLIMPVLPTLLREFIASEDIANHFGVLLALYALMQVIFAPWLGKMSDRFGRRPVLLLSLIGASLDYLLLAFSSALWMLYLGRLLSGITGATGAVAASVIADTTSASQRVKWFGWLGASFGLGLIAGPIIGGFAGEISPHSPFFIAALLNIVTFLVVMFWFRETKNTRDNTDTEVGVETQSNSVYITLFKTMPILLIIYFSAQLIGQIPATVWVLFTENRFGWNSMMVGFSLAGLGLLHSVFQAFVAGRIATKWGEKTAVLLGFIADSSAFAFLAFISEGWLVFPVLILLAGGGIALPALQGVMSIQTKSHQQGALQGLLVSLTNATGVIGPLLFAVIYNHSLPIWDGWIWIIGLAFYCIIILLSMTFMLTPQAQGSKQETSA
T1 sequence (P02980 1-393, stated change not applied): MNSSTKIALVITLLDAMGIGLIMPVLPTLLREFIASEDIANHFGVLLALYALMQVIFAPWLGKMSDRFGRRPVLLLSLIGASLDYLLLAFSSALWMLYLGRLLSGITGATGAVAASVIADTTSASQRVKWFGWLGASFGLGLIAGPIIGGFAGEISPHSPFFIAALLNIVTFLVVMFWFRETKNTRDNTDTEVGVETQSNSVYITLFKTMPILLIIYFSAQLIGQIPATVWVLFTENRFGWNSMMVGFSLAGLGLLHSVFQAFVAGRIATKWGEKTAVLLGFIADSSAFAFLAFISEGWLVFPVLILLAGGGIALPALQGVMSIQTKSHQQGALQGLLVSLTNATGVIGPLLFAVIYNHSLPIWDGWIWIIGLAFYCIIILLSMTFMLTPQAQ
Sequence of TetA(B)-Δ394–401-Thrombin-His12 (Escherichia coli, UniProt P02980, DEL195-199/DEL203-207) (P02980 1-393, stated change not applied): as above

`CN(C)[C@@H]1C(=O)C(C(N)=O)=C(O)[C@@]2(O)C(=O)C3=C(O)c4c(O)cccc4[C@@](C)(O)[C@H]3C[C@@H]12` [tetracycline]: the values for the Kd (in test [1]; in test [2]; at TetA(B)-His10) were 10 ± 2 µM, 17.5 ± 0.5 µM and 7.3 ± 0.5 µM, respectively.

What is called Kd is a measure of binding affinity in units of concentration.
